Experimental data published in US10167299B2, “1-(3-aminopropyl) substituted cyclic amine compounds, preparation method therefor, and pharmaceutical compositions and uses thereof” (SHANGHAI INSTITUTE OF MATERIA MEDICA, CHINESE ACADEMY OF …, priority 2013, dated 2019).

Assays:
PBMC cells = assay: Toxicity test of compounds on PBMC cells (MTT); assay type: cell-based
Summary of the method: (§1)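 MTT read-out (570 nm, 630 nm reference) after 3-day culture of HOS-CD4-CCR5 cells at 4×10^5/ml or 7-day culture of PHA-activated PBMC at 5×10^6/ml, with fresh medium added on day 3. Compounds were tested as six 5-fold dilutions in triplicate, in 10% FBS medium at 37 °C, 5% CO2.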

HOS-CD4-CCR5 cells = assay: Toxicity test of compounds on HOS-CD4-CCR5 cells (MTT); assay type: cell-based; conditions: HOS-CD4+-CCR5 cells (Table 8)
Summary of the method: as §1

[1] = Pharmacokinetic experiment of rats; conditions: for AUC(0-t) / AUC(0-inf) / Cmax / MRT / Tmax / bioavailability: male, rat, plasma
Protocol: The administration volume was 10 mL/kg and drug was formulated with DMSO/Tween 80/physiological saline (5:5:90, v/v/v). […] 2 h after dosing, the rats ate together.
At above time points, 0.3 ml of venous blood was taken from retrobulbar venous plexus of the rat and loaded into EDTA-2K anticoagulative tube. After centrifuged at 11000 rpm for 5 mm, the plasma was separated and frozen at −20° C. in a refrigerator.
The concentration of each compound in rat plasma was determined by LC/MS/MS.
(§3) The pharmacokinetic parameters after administration were calculated by using non-compartment model of WinNonlin 5.3 software (Pharsight Corporation, USA).

[2] = test system: Salmonella typhimurium strain TA98; assay: Bacterial reverse mutation assay TA98 (-S9); assay type: cell-based; conditions: for mutagenic effect on Salmonella typhimurium strain TA98: -S9, 1-5000 μg/dish
Protocol: (§2) The mutagenic effects of compounds 18 and 22 of the present invention on Salmonella typhimurium strains TA98 and TA100 in non-metabolic activation (-S9) condition were determined. Two strains, TA98 and TA100 were chosen in bacterial reverse mutation assay for compounds 18 and 22. 9 doses containing […], negative and positive controls were set in experiments. 3 dishes were used for each dose. The experiment was carried out under -S9 condition.

[3] = test system: Salmonella typhimurium strain TA100; assay: Bacterial reverse mutation assay TA100 (-S9); assay type: cell-based; conditions: for mutagenic effect on Salmonella typhimurium strain TA100: -S9, 1-5000 μg/dish
Protocol: as §2

[4] = Four days subacute toxicity test of rats; assay type: in vivo; conditions: SD rats; for Clinical observations, clinical pathology detection (hematology and serum biochemistry) and macroscopic morphological observation / weight gain compared with vehicle control group: gavage 4 days, 100 and 1000 mg/kg; for weight gain compared with vehicle control group: some male and female animals; for NOAEL at 4 days: both sexes, rat, in vivo, po, gavage for 4 days, read-out: No Observed Adverse Effect Level (NOAEL)
Source text: After compounds 18 and 22 of the present invention were administrated to SD rats through gavage for 4 consecutive days, the toxic reaction was preliminarily assessed to confirm the possible target organ of toxic reaction.
One vehicle control group was set. Each group contained four rats including two male rats and two female rats. During the experiment stage, the animals were daily clinically observated. The body weight was regularly measured. On the 5th day, all animals were subject to pathological examination and gross anatomy.

[5] = Pharmacokinetic experiment on Beagles
Protocol: The administration volume was 2 mL/kg and 1 mL/kg, respectively. The compound was suspended in 20% PEG400 (4:96) for gavage and formulated in DMSO/Tween 80/physiological saline (5:1:94, v/v/v) for intravenous injection. […] 2 h after dosing, all of Beagles ate together.
At above time points, 0.6 ml venous blood was taken from limb venous and loaded into EDTA-2K anticoagulative tube. After centrifuged at 11000 rpm for 5 mm, the plasma was separated and frozen at −20° C. in a refrigerator.
as §3

[6] = male, beagle, dog, plasma, iv, 3 mg/kg
[7] = male, beagle, dog, plasma, po, 15 mg/kg

Cc1ccc([C@H](CCN2C3CCC2CC(n2c(C)nnc2C(C)C)C3)NC(=O)C2CCC(F)(F)CC2)s1 (stereo partly drawn) [Compound 29, 4,4-difluoro-N-[(1S)-3-[exo-3-(3-isopropyl-5-methyl-4H-1,2,4-triazol-4-yl)-8-azabicyclo[3.2.1]octane-8-yl]-1-(5-methylthiophen-2-yl)propyl]cyclohexane-1-carboxamide]
CC50 (PBMC cells; PBMC cells (Table 5)): >200 µg/mL
CC50 (PBMC cells; PBMC cells (Table 6)): >200 µg/mL
CC50 (HOS-CD4-CCR5 cells): >200 µg/mL

Cc1nnc(C(C)C)n1C1CCN(CC[C@H](NC(=O)C2CCCC2)c2cccs2)CC1 [Compound 17, N-[(1S)-3-[4-(3-isopropyl-5-methyl-4H-1,2,4-triazol-4-yl)-piperidin-1-yl]-1-(thiophen-2-yl)propyl]cyclopentane-1-carboxamide]
AUC(0-t) ([1]; intravenous, 10 mg/kg): 374 ng·h/mL
AUC(0-inf) ([1]; iv, 10 mg/kg): 394 ng·h/mL
AUC(0-t) ([1]; iv, 10 mg/kg): 374 ng·h/mL
Cmax ([1]; iv, 10 mg/kg): 246 ng/mL
MRT ([1]; iv, 10 mg/kg): 1.42 h
Tmax ([1]; iv, 10 mg/kg): 0.25 h
bioavailability ([1]; oral): 46.6%
AUC(0-inf) ([1]; po, 20 mg/kg): 364 ng·h/mL
AUC(0-t) ([1]; po, 20 mg/kg): 348 ng·h/mL
Cmax ([1]; po, 20 mg/kg): 122 ng/mL
MRT ([1]; po, 20 mg/kg): 2.31 h
Tmax ([1]; po, 20 mg/kg): 0.5 h
bioavailability ([1]; po, 20 mg/kg): 46.6%
AUC0-t ng/mL * h ([1]; rats, gavage, 20 mg/kg): 347.9 ng·h/mL
CLz ([1]; rats, vein, 10 mg/kg): 423 mL/min/kg

Cc1nnc(C(C)C)n1C1CC2CCC(C1)N2CC[C@H](NC(=O)C1CCC(F)(F)CC1)c1ccsc1 (stereo partly drawn) [Compound 22, 4,4-difluoro-N-[(1S)-3-[exo-3-(3-isopropyl-5-methyl-4H-1,2,4-triazol-4-yl)-8-azabicyclo[3.2.1]octane-8-yl]-1-(thiophen-3-yl)propyl]cyclohexane-1-carboxamide]
CC50 (HOS-CD4-CCR5 cells): >800 µg/mL
mutagenic effect on Salmonella typhimurium strain TA98 [2]: no mutagenic effect
number of revertant colonies (Mean ± SD) ([2]; TA98, -S9, 1 μg/dish): 23 ± 3.2
number of revertant colonies (Mean ± SD) ([2]; TA98, -S9, 3 μg/dish): 24 ± 3.6
number of revertant colonies (Mean ± SD) ([2]; TA98, -S9, 10 μg/dish): 23 ± 2.6
number of revertant colonies (Mean ± SD) ([2]; TA98, -S9, 30 μg/dish): 21 ± 5.2
number of revertant colonies (Mean ± SD) ([2]; TA98, -S9, 100 μg/dish): 23 ± 6.7
number of revertant colonies (Mean ± SD) ([2]; TA98, -S9, 300 μg/dish): 23 ± 6.5
number of revertant colonies (Mean ± SD) ([2]; TA98, -S9, 1000 μg/dish): 19 ± 6.4
number of revertant colonies (Mean ± SD) ([2]; TA98, -S9, 3000 μg/dish): 22 ± 5.0
number of revertant colonies (Mean ± SD) ([2]; TA98, -S9, 5000 μg/dish): 25 ± 7.2
mutagenic effect on Salmonella typhimurium strain TA100 [3]: no mutagenic effect
number of revertant colonies (Mean ± SD) ([3]; TA100, -S9, 1 μg/dish): 107 ± 16.7
number of revertant colonies (Mean ± SD) ([3]; TA100, -S9, 3 μg/dish): 109 ± 9.3
number of revertant colonies (Mean ± SD) ([3]; TA100, -S9, 10 μg/dish): 112 ± 10.7
number of revertant colonies (Mean ± SD) ([3]; TA100, -S9, 30 μg/dish): 90 ± 11.0
number of revertant colonies (Mean ± SD) ([3]; TA100, -S9, 100 μg/dish): 97 ± 4.6
number of revertant colonies (Mean ± SD) ([3]; TA100, -S9, 300 μg/dish): 102 ± 2.9
number of revertant colonies (Mean ± SD) ([3]; TA100, -S9, 1000 μg/dish): 90 ± 6.5
number of revertant colonies (Mean ± SD) ([3]; TA100, -S9, 3000 μg/dish): 86 ± 13.1
number of revertant colonies (Mean ± SD) ([3]; TA100, -S9, 5000 μg/dish): 109 ± 17.5
Clinical observations, clinical pathology detection (hematology and serum biochemistry) and macroscopic morphological observation [4]: no significant drug-related changes
weight gain compared with vehicle control group [4]: increased slowly or exhibited negative growth
NOAEL at 4 days [4]: 1000 mg/kg
AUC(0-t) [5]: 10900 ng·h/mL
AUC0-t ng/mL * h ([5]; Beagles, gavage, 15 mg/kg): 5426 ng·h/mL
Tmax h ([5]; Beagles, gavage, 15 mg/kg): 0.833 h
t1/2 h ([5]; Beagles, gavage, 15 mg/kg): 3.89 h
CLz ([5]; Beagles, vein, 3 mg/kg): 4.63 mL/min/kg
AUC(0-t) ([5]; male, beagle, dog, plasma, intravenous, 3 mg/kg): 10900 ng·h/mL
AUC(0-inf) [5, 6]: 10900 ng·h/mL
MRT [5, 6]: 1.65 h
half-life [5, 6]: 1.73 h
bioavailability ([5]; male, beagle, dog, plasma, oral): 9.98%
AUC(0-inf) [5, 7]: 5520 ng·h/mL
AUC(0-t) [5, 7]: 5430 ng·h/mL
Cmax [5, 7]: 4610 ng/mL
MRT [5, 7]: 2.11 h
bioavailability [5, 7]: 9.98%
half-life [5, 7]: 3.89 h
Tmax ([5]; male, beagle, dog, plasma, po, 15 mg/kg, Tmax h, Beagles, gavage): 0.833 h

Cc1nnc(C(C)C)n1C1CC2CCC(C1)N2CC[C@H](NC(=O)C1CCCC1)c1cccs1 (stereo partly drawn) [Compound 18, N-[(1S)-3-[exo-3-(3-isopropyl-5-methyl-4H-1,2,4-triazol-4-yl)-8-azabicyclo[3.2.1]octane-8-yl]-1-(thiophen-2-yl)propyl]cyclopentane-1-carboxamide]
mutagenic effect on Salmonella typhimurium strain TA98 [2]: no mutagenic effect
number of revertant colonies (Mean ± SD) ([2]; TA98, -S9, 1 μg/dish): 24 ± 5.0
number of revertant colonies (Mean ± SD) ([2]; TA98, -S9, 3 μg/dish): 23 ± 2.6
number of revertant colonies (Mean ± SD) ([2]; TA98, -S9, 10 μg/dish): 20 ± 2.3
number of revertant colonies (Mean ± SD) ([2]; TA98, -S9, 30 μg/dish): 19 ± 1.5
number of revertant colonies (Mean ± SD) ([2]; TA98, -S9, 100 μg/dish): 15 ± 4.6
number of revertant colonies (Mean ± SD) ([2]; TA98, -S9, 300 μg/dish): 20 ± 4.2
number of revertant colonies (Mean ± SD) ([2]; TA98, -S9, 1000 μg/dish): 18 ± 1.5
number of revertant colonies (Mean ± SD) ([2]; TA98, -S9, 3000 μg/dish): 21 ± 1.5
number of revertant colonies (Mean ± SD) ([2]; TA98, -S9, 5000 μg/dish): 20 ± 4.9
mutagenic effect on Salmonella typhimurium strain TA100 [3]: no mutagenic effect
number of revertant colonies (Mean ± SD) ([3]; TA100, -S9, 1 μg/dish): 116 ± 9.0
number of revertant colonies (Mean ± SD) ([3]; TA100, -S9, 3 μg/dish): 96 ± 10.0
number of revertant colonies (Mean ± SD) ([3]; TA100, -S9, 10 μg/dish): 95 ± 13.1
number of revertant colonies (Mean ± SD) ([3]; TA100, -S9, 30 μg/dish): 100 ± 8.3
number of revertant colonies (Mean ± SD) ([3]; TA100, -S9, 100 μg/dish): 88 ± 0.6
number of revertant colonies (Mean ± SD) ([3]; TA100, -S9, 300 μg/dish): 91 ± 18.2
number of revertant colonies (Mean ± SD) ([3]; TA100, -S9, 1000 μg/dish): 106 ± 17.6
number of revertant colonies (Mean ± SD) ([3]; TA100, -S9, 3000 μg/dish): 108 ± 6.9
number of revertant colonies (Mean ± SD) ([3]; TA100, -S9, 5000 μg/dish): 95 ± 7.2
Clinical observations, clinical pathology detection (hematology and serum biochemistry) and macroscopic morphological observation [4]: no significant drug-related changes
weight gain compared with vehicle control group [4]: increased slowly or exhibited negative growth
NOAEL at 4 days [4]: 1000 mg/kg
